Reference: patent US20240299345A1, “GINKGOLIDE B AND ITS DERIVATIVES FOR INHIBITING AND/OR REVERSING AGING” (CHINA MEDICAL UNIVERSITY, priority 2023, published 2024)

How the values were obtained:
[1] = test system: gastrocnemius (GA) muscle; assay: Ex vivo muscle contractility and fatigability of GA muscle from treated aged mice; type: in vivo, mouse; conditions: GB 2 months
Experimental: For the ex vivo muscle function test, the isolated right side gastrocnemius (GA) muscle were incubated in Krebs buffer at room temperature and with 95% O2 and 5% CO2 for five minutes. GA muscle received stimuli three times under the optimal length to evaluate twitch force. Three 150 Hz continuous stimuli were given to evaluate tetanic force. Twitch force and tetanic force were normalized to the cross-section area (CSA) of GA muscle. GA muscle fatigue was measured by repeated isometric tetanic contraction every 5 seconds for a total of 60 contractions. Five minutes and ten minutes after fatigue protocol, the maximal tetanic force was measured to assess post-fatigue recovery. All of the results were recorded with the Dynamic Muscle Control system (DMC v5.4; Aurora Scientific, Inc.), and results were analyzed by the Dynamic Muscle Analysis system (DMA v3.2; Aurora Scientific, Inc.).

[2] = test system: ovariectomized (OVX) female C57BL/6 mice; assay: Postmenopausal (OVX, estrogen-deficient) mouse model: muscle wasting and physical activity; type: in vivo
Experimental: Forelimb grip strength was measured by a grip strength meter (Muromachi Kikai Co., Tokyo, Japan). Each mouse performed five trials for force measurement, and the values were normalized to body and recorded. A rotarod test was carried out by using the rotarod treadmill (Singa Technology Corporation, Taoyuan City, Taiwan). The speed was adjusted to 4 rpm for 4 sec, 10 rpm for 10 sec, 20 rpm for 20 sec, and then 40 rpm until the mice fell. Mice were familiarized with the rotarod and balance beam by running 5 min for three consecutive days before the onset of experimentation. During the experiment, each mouse performed four trials, and the average time that each rodent was able to stay on top of the rotarod treadmill was recorded. The balance beam test was used to assess subtle motor coordination and balance. After initial training, mice were given four consecutive trials where they were required to cross 60 cm of a round beam (14 mm in diameter). The time for crossing the beam and the number of hind-feet slip were recorded. Hanging endurance was determined by Kondziella's inverted hanging screen test. Mice were putted at the center of grasped wire screen (bar thickness, 2 mm; mesh, 10 mm). After inverting the wire screen, the time of sustained limb tension on the screen were recorded. A fixed maximum hanging limit of 600 seconds was used. Each trial was repeated three times at 30-min interval, the mean values were recorded.

[3] = GB 3 and 12 mg/kg daily for two months

SMILES: CC1C(=O)OC2C(O)C34C5CC(C(C)(C)C)C36C(OC(=O)C6O)OC4(C(=O)O5)C12O (stereo not drawn) [GB, Ginkgolide B]
- absolute tetanic force [1]: significantly enhanced
- absolute twitch force [1]: significantly enhanced
- time to maximum force ([1]; p=0.0003): reversed the increased time to maximum force to the youth levels
- specific force (normalized to muscle mass) ([1]; p=0.1161 and 0.1935): modest increased
- fatigue resistance or recovery rate ([1]; p=0.99 at five and ten minutes): did not alter
- myofiber CSA [2, 3]: dose-dependently restored
- skeletal muscle mass [2, 3]: dose-dependently restored
- decline of motor performance ([2]; high-dose GB, two months): fully reversed
- forelimb grip strength ([2]; high-dose GB, two months): improved
